The text below walks through data of patent US6303621A, “Method for treating cancers using a diiodo thyronine analogue having no significant hormonal activity and a vinca alkaloid and compositions comprising the same” (priority 1999, dated 2001).

“Also recorded” adds a separate entry of the source.

In data set [1] the test system is biosynthetic pathways of DNA, RNA or proteins. The data set can be described thus: Metabolic action and biosynthetic pathways of DNA, RNA or proteins.
The next data set has as its system tadpole metamorphosis. As to conditions: in vivo; cited from earlier work.
The test system of data set [2] is non-malignant mouse pituitary adenoma. Conditions: in vivo; cited from earlier work.
The subject of the next data set is tubulin α+β. The data set can be described thus: Inhibition of tubulin polymerization / assembly of microtubules. The data set is classed as biochemical. As to conditions: FIG. 4b. How it is done: The optical tests were performed as reported by Buki et al., International Journal of Oncology 10:911-913 (1997).
Data set [3] in a line: Toxicity, daily oral dosing in nude mice. The data set is classed as in vivo. As to conditions: daily oral dose 1 g/kg, 12-15 days. The procedure:
Ten nude mice were administered a daily oral dose of ^14 C-labeled DIME (Compound 1) (1.0 g/kg, 0.1 mL in corn oil) for a period of 12-15 days.

A further data set concerns tumor cells. The data set can be described thus: Tumor cell apoptosis and micronucleation. The data set is classed as cell-based.
Another data set concerns nontumorigenic cells. The data set can be described thus: DIME uptake / permeation in nontumor cells. Format: cell-based. Conditions: versus malignant counterparts.
The subject of data set [4] is metaphase arrest in cancer cells. The data set can be described thus: Metaphase block (mitotic block). The data set is classed as cell-based. An excerpt:
Metaphase was quantitated as reported by Mendeleyev et al., International Journal of Oncology 10:689-695 (1997).
Since vincristine and vinblastine were equivalent here we illustrate only DIME-vinblastine interaction on mitotic block.

The subject of data set [5] is caspase 3. The data set can be described thus: Caspase 3 assay in drug-treated cells. The data set is classed as cell-based, human. As to conditions: 0.75 μM DIME or 2 nM vincristine alone, 3 days. How it is done:
g. Caspase 3 assay. MDA 231 cells were grown for 3 days in the absence of drugs (control) or in the presence of 0.75 μM DIME, or in the presence of 2 nM vincristine, or in the presence of both drugs. After harvesting and washing the cells with PBS, they were lysed in a lysis buffer (10 mM HEPES, 5 mM DTT, 2 mM EDTA, 1 mM PMSF, 0.1% CHAPS, 20 μg/ml each of aprotinin, leupeptin, pepstatin, pH 7.4), and were frozen and thawed 3 times. […] Each cell extract was incubated at room temperature with and without preincubation with the caspase inactivator DEVD-CMK. The difference of fluorescence was plotted against time. The fluorescence was calibrated with the fluorophore AFC.

The subject of data set [6] is caspase 3. The data set can be described thus: Caspase 3 in cell-free extracts treated with drugs. As to conditions: results not shown. Format: biochemical.
A short description of data set [7]: Serum half-life and bioavailability of 14C-labeled DIME. The data set is classed as in vivo. As to conditions: mice. How it is done: Mice were orally dosed with 126 mg/kg 14C-labeled DIME (Compound 1). After dosing, blood sampling times were 15 and 30 minutes and 1, 2, 4, 6, 8 and 24 hours. Aliquots (50 μL) of blood were assayed in a liquid scintillation counter and data expressed as microgram-equivalents per mL. The blood level data were analyzed by the […] method (Micromath, Salt Lake City, Utah). Parallel groups of mice were dosed intravenously with 24.5 mg/kg 14C-labeled DIME and blood sampling times were 10, 20 and 30 minutes and 1, 2, 4, 6 and 8 hours.

Turning to `COC(=O)c1cc(I)c(Oc2ccc(OC)cc2)c(I)c1` [DIME, methyl 3,5-diiodo-4-(4'-methoxyphenoxy) benzoate], in [1], the “Inhibition of biosynthetic pathways of DNA, RNA or proteins” value is “nor does it inhibit the biosynthetic pathways of DNA, RNA or proteins” and the Metabolic action result is recorded as “no metabolic action”. In addition, in the data set with tadpole metamorphosis, the “Metabolic or cell differentiating activity (tadpole metamorphosis)” value is listed as “no significant metabolic or cell differentiating activity”. The “Growth of non-malignant mouse pituitary tumor” value in [2] is reported as “no inhibitory activity”. Further, in the data set with tubulin α+β, the “Inhibition of assembly of microtubules, DIME versus DIPE” value is given as “equivalency; also recorded: Inhibitory effects”. Besides, in [3], the Ill effects entry is “remarkably nontoxic; also recorded: No ill effects were observed”. In addition, the “Tumor cell apoptosis / micronucleation” value in the data set on tumor cells is “induce tumor cell apoptosis preceded by micronucleation”. Further, the “DIME uptake / permeability of nontumor cells” value with nontumorigenic cells is on record as “impermeable to DIME; also recorded: take up significantly less DIME”. For the same molecule, in data set [4], the M-block entry is reported as “induces M-block”. Moreover, the “Activation of caspase 3, single drug” value with caspase 3 [5] is on record as “small rate of caspase 3 activity”. Moreover, the “Caspase 3 increase in cell-free extracts” value in the data set on caspase 3 [6] is reported as “do not show an increase in caspase 3”. The “half-life (t1/2) in serum” value in data set [7] lay in the range of 2 to 2.5 h.
